# Source: paper PMC7061854, “Population Pharmacokinetics of Caspofungin and Dosing Optimization in Children With Allogeneic Hematopoietic Stem Cell Transplantation” (Frontiers in Pharmacology, 2020)
# Like-named read-outs stand apart in the source and are kept apart here.
# Columns and labels:
# clinical = type: in vivo, human; conditions: for AUC(0-t) / clearance: human, in vivo, iv; for AUC(0-t): median ± standard deviation, read-out: AUC24
# Description: A prospective, open-label pharmacokinetic study of caspofungin was performed at Wuhan Children's Hospital, Hubei Province. All designed procedures conformed to the legal requirements and the ethics committee of Wuhan Children's Hospital approved this study.
# (§1) Caspofungin has been approved for use in patients with IFI that requiring prevention treatment, especially for patients undergoing allo-HSCT. In total, 48 patients, received allo-HSCT, fulfilled the enrollment criteria and provided informed in the model building group between July 2017 and March 2019. They received caspofungin as a 1-h intravenous infusion on the basis of body surface area (BSA) with 50 mg/m^2 maintenance dose daily followed by 70 mg/m^2 loading dose on day 1.
# We performed an opportunistic sampling strategy when a steady-state caspofungin concentration had been achieved. Plasma was placed on ice and centrifuged (15,000 rpm for 5 min at +4°C) immediately and then stored at −80°C prior to analysis. Then we recorded the dosing and infusion time as well as sampling time prospectively.
# Caspofungin concentrations were detected by a high-performance liquid chromatography method (Agilent Technologies Inc., 1260 infinity) with ultraviolet (UV) performed on detection by fluorescence. The excitation wavelength was 220 nm, the column temperature was 30 °C, and the pump flow rate was 0.8 ml/min. A solution of 42% acetonitrile was used as the mobile phase. We employed 0.5 ml of serum loaded on solid-phase extraction column (Agela Technologies, Cleanert ODS C18, 200 mg/3 ml) and then eluted with 60% acetonitrile. An Innoval C18 column (Agela Technologies, 10 μm, 4.6 × 250 mm) was used for separation. The calibration curve ranged from 0.6 to 20 mg/L. The inter- and intra-assay coefficients of variation of controls were all less than 5%. The lower limit of quantification (LLOQ) was 0.6 mg/L.
# The PopPK study was performed by applying the non-linear mixed-effect modeling program Phoenix NLME (Version 8.1, Pharsight Corporation) and R program (Version 3.5.1, http://www.r-project.org/).
# We tried to describe the pharmacokinetic process of caspofungin in vivo by using the one- or two-compartment models. The scale model and exponential model were adopted for intra-individual variation and inter-individual variation respectively. A forward and backward selection process was used for covariate analysis. The effects of demographic characteristics including age, body weight (WT), height, BSA, biological parameters including uric acid (UA), serum cystatin C (Cys-C), estimated glomerular filtration rate (eGFR), alanine aminotransferase (ALT), aspartate aminotransferase (AST), and gama-glutamyltranspeptidase (gama-GT) that were investigated as potential covariates on PK parameters. eGFR was calculated according to the modified Schwarta formula ([Schwartz et al., 2009]). Mosteller formula was used to calculate the body surface area (BSA) as follows ([Yang et al., 2019]):
# BSA(m^2)=[height(cm)×weight(kg)/3600]^1/2
# During the forward selection step, the covariate causing the objective function value (OFV) decreased more than 3.84 (P < 0.05, χ2 distribution, df = 1), the covariate was included into the model, thereafter we tested the remaining covariates.
# In this study, goodness-of-fit plots, bootstrap, visual predictive check (VPC), and normalized prediction distribution errors (NPDEs) were adopted to model validation. Bootstrap resampling 1,000 times in the modeling data, and the model was established with the sampling data set. We compared the similarity between bootstrap model parameters and the parameters in final model. VPC simulated 1,000 virtual data with the final model and analyze whether the 95% confidence interval (CI) of the simulated data contains the original data. NPDEs also adopted simulation technology and simulated 1,000 times based on the final model to investigated the distribution of the standard error and perform the normal distribution test.
# C. albicans [1] = conditions: ref Pfaller et al.; cited from earlier work
# Description: Table 4 The area under the concentration-time curve (AUC)/minimal inhibitory concentration (MIC) target probability of target attainment (PTA) values(%) against Candida albicans, Candida glabrata, and Candida parapsilosis for caspofungin in pediatric patients. | column: AUC/MIC target PTA(%) / C. albicans MIC90 = 0.04 mg/L / Fungistatic target || Two simulation procedures were performed to calculate the probability of PK/PD target attainment with different dosing regimens based on the final model. One of the procedure is fixed MIC value of Candida app. to simulated the clinical efficacy of the different drug regimens of caspofungin in infants, children (age 2–11 years), and adolescents (age 12–14 years). According to the literature report, the MIC90 value for C. albicans, C. glabrata, and C. parapsilosis are 0.03, 0.06, and 0.5 mg/L ([Pfaller et al.]). Another simulation procedure is not fixed MIC values. The loading doses of caspofung ...
# C. albicans [2] = conditions: ref Andes et al., 2010; cited from earlier work
# Source text: (§2) The likely success of treatment identified with the probability of target attainment (PTA) by comparing the pharmacodynamic exposure against an minimal inhibitory concentration (MIC) distribution. […] A PK/PD target was defined as the ratio AUC24/MIC for candidiasis. […] Fungistatic ...
# C. glabrata [3] = conditions: ref Andes et al., 2010; cited from earlier work
# Source text: as §2
# [4] = median, children 2–12 years old, two-compartment model; ref Yang et al., 2019; cited from earlier work
# Source text: Others reported weight and disease state had significant effects on caspofungin PKs in pediatric patients ([Li et al., 2011]). Xin-Mei Yang studied the PK of caspofungin in children (2–12 years old).
# C. parapsilosis [5] = conditions: ref Pfaller et al.; cited from earlier work
# Description: Table 4 The area under the concentration-time curve (AUC)/minimal inhibitory concentration (MIC) target probability of target attainment (PTA) values(%) against Candida albicans, Candida glabrata, and Candida parapsilosis for caspofungin in pediatric patients. | column: AUC/MIC target PTA(%) / C. parapsilosis MIC90 = 0.5 mg/L / Fungistatic target || Two simulation procedures were performed to calculate the probability of PK/PD target attainment with different dosing regimens based on the final model. One of the procedure is fixed MIC value of Candida app. to simulated the clinical efficacy of the different drug regimens of caspofungin in infants, children (age 2–11 years), and adolescents (age 12–14 years). According to the literature report, the MIC90 value for C. albicans, C. glabrata, and C. parapsilosis are 0.03, 0.06, and 0.5 mg/L ([Pfaller et al.]). Another simulation procedure is not fixed MIC values. The loading doses of caspofung ...
# [6] = test system: invasive fungal infections (IFI); test: Clinical outcome of caspofungin prophylaxis for fungal infections during HSCT; type: in vivo, human
# Description: as §1
# In this study, 48 patients received caspofungin (loading dose of 70 mg/m^2 followed by 50 mg/m^2) as prophylaxis for fungal infections for a period of HSCT. The diagnosis of IFI mainly relied on a chest computed tomography (CT), clinical symptoms, blood culture, G test, and GM test. Patients were considered a probable IFI case with a chest CT scan positive for a halo or air crescent sign and large mass flocculent shadow. Routine blood culture, as long as the patients who receive bronchoscopy are all sent to receive bronchoalveolar lavage fluid culture meanwhile high throughput sequencing to find the pathogenic bacteria. […] The culture of bronchoalveolar lavage fluid was negative in three cases for consecutive two times and positive for C. parapsilosis in one case that was identified as C. parapsilosis infection (MIC = 0.5 mg/L). […]
# C. parapsilosis [7] = test: MIC of the isolate cultured from bronchoalveolar lavage fluid; type: cell-based, Candida parapsilosis; conditions: isolate of one failed prophylaxis case
# Description: In this study, 48 patients received caspofungin (loading dose of 70 mg/m^2 followed by 50 mg/m^2) as prophylaxis for fungal infections for a period of HSCT. The diagnosis of IFI mainly relied on a chest computed tomography (CT), clinical symptoms, blood culture, G test, and GM test. Patients were considered a probable IFI case with a chest CT scan positive for a halo or air crescent sign and large mass flocculent shadow. Routine blood culture, as long as the patients who receive bronchoscopy are all sent to receive bronchoalveolar lavage fluid culture meanwhile high throughput sequencing to find the pathogenic bacteria. […] The culture of bronchoalveolar lavage fluid was negative in three cases for consecutive two times and positive for C. parapsilosis in one case that was identified as C. parapsilosis infection (MIC = 0.5 mg/L). The median ± standard deviation of AUC24 in successful and failed cases group are 394.93 ± 91.14 mg·h/L and 352.08 ± 24.43 mg·h/L (t = 0.929, P = 0.358) at the loading dose, 300.37 ± 88.3 mg·h/L and 247.71 ± 33.67 mg·h/L (t = 1.175, P = 0.246) at the maintenance dose respectively. […] They were much lower than fungicidal target AUC24/MIC ratios ⩾ 1185 for C. parapsilosis. At the maintenance dose AUC24/MIC ratios were lower than the fungistatic target AUC24/MIC ratios ⩾ 559 for C. parapsilosis, which might lead to the failure of preventive treatment.
# C. glabrata [8] = conditions: ref Pfaller et al.; cited from earlier work
# Description: Table 4 The area under the concentration-time curve (AUC)/minimal inhibitory concentration (MIC) target probability of target attainment (PTA) values(%) against Candida albicans, Candida glabrata, and Candida parapsilosis for caspofungin in pediatric patients. | column: AUC/MIC target PTA(%) / C. glabrata MIC90 = 0.06 mg/L / Fungistatic target || Two simulation procedures were performed to calculate the probability of PK/PD target attainment with different dosing regimens based on the final model. One of the procedure is fixed MIC value of Candida app. to simulated the clinical efficacy of the different drug regimens of caspofungin in infants, children (age 2–11 years), and adolescents (age 12–14 years). According to the literature report, the MIC90 value for C. albicans, C. glabrata, and C. parapsilosis are 0.03, 0.06, and 0.5 mg/L ([Pfaller et al.]). Another simulation procedure is not fixed MIC values. The loading doses of caspofung ...
# [9] = Bayesian estimates, mean ± SD, all children, SD
# [10] = patients with mild liver dysfunction (40 U/L < AST ⩽ 120 U/L)
# [11] = patients with normal liver function
smiles,measurement,setting,value
"CC[C@H](C)C[C@H](C)CCCCCCCCC(=O)N[C@H]1C[C@@H](O)[C@@H](NCCN)NC(=O)[C@@H]2[C@@H](O)CCN2C(=O)[C@H]([C@H](O)CCN)NC(=O)[C@H]([C@H](O)[C@@H](O)c2ccc(O)cc2)NC(=O)[C@@H]2C[C@@H](O)CN2C(=O)[C@H]([C@@H](C)O)NC1=O [caspofungin, Caspofungin]",θ1 Bootstrap analysis Median Estimate,"clinical; 1,000-run bootstrap",0.91
same,θ2 Bootstrap analysis Median Estimate,"clinical; 1,000-run bootstrap",−0.25
same,BSA-normalized CL,clinical; [9],0.19 ± 0.04 L/m^2/h
same,BSA-normalized Vd,clinical; [9],1.72 ± 0.01 L/m^2
same,BSA-normalized CL,"clinical; adolescents, age 12–14 years, two severe liver dysfunction patients excluded",0.178 ± 0.039 L/m^2/h
same,BSA-normalized CL,"clinical; children, age 2–11 years, two severe liver dysfunction patients excluded",0.187 ± 0.031 L/m^2/h
same,θ1 (exponent for BSA as covariate) Final model Estimate,clinical; final PopPK model,0.89
same,θ2 (exponent for lnAST as covariate for CL) Final model Estimate,clinical; final PopPK model,−0.23
same,AUC(0-t),"clinical; 50 mg/m2, failed cases group, at the maintenance dose (50 mg/m^2), SD",248 ± 33.7 µg·h/mL
same,AUC(0-t),"clinical; 50 mg/m2, successful cases group, at the maintenance dose (50 mg/m^2), SD",300 ± 88.3 µg·h/mL
same,AUC(0-t),"clinical; 70 mg/m2, failed cases group, at the loading dose (70 mg/m^2), SD",352 ± 24.4 µg·h/mL
same,AUC(0-t),"clinical; 70 mg/m2, successful cases group, at the loading dose (70 mg/m^2), SD",395 ± 91.1 µg·h/mL
same,clearance,clinical; [10],1.95 mL/min
same,clearance,clinical; [11],2.67 mL/min
same,BSA-normalized CL,"clinical; infants, two severe liver dysfunction patients excluded",0.190 ± 0.015 L/m^2/h
same,θVd (L) Final model Estimate,"clinical; one-compartment PopPK model, typical value, 48 children with allo-HSCT, Vd = 1.36 × (BSA/0.79)",1.36 L
same,θCL (L·h^−1) Final model Estimate,"clinical; one-compartment PopPK model, typical value, CL = 0.14 × (BSA/0.79)^0.89 × (lnAST/3.38)^−0.23",0.14 L/h
same,estimated BSA-normalized CL,clinical; [10],0.179 ± 0.03 L/m^2/h
same,estimated BSA-normalized CL,clinical; [11],0.188 ± 0.03 L/m^2/h
same,MIC90,C. albicans [1],0.03 mg/L
same,Fungicidal target AUC24/MIC ratio,C. albicans [2],865
same,Fungistatic target AUC24/MIC ratio,C. albicans [2],748
same,Fungicidal target AUC24/MIC ratio,C. glabrata [3],450
same,Fungistatic target AUC24/MIC ratio,C. glabrata [3],96.2
same,CL,[4],0.21 L/h/m^2
same,central volume distribution,[4],2.23 L/m^2
same,MIC90,C. parapsilosis [5],0.5 mg/L
same,drug-related adverse events,"[6]; 48 caspofungin recipients, standard-dose",we did not find drug-related adverse events
same,patients with prophylaxis (favorable) outcome,"[6]; 48 children with allo-HSCT, loading dose 70 mg/m^2 followed by 50 mg/m^2",92%
same,MIC,C. parapsilosis [7],0.5 mg/L
same,MIC90,C. glabrata [8],0.06 mg/L
